Reference: PubChem BioAssay AID1311 (NMMLSC, 2008)
Where a SMILES comes first, the peptide text is derived from it. The star is where a group is joined. Cbz = O=C(OCc1ccccc1)*

Test system: Yeast Sic1MUS-GFP degradation, Cln2 overexpression, flow cytometry
Assay: degradation of ubiquitination-site mutant Sic1-GFP in yeast, confirmation, mechanism study for 26S proteasome disassembly project, flow cytometry, Cln2 overexpression, Sic1MUS mutant (AID 1311)
Conditions: stronger effect = higher value

Row | SMILES | percent GFP remaining [%]
1 | CC(=O)N1C(=O)C(=C2C=C(C)OC(C)=C2)c2ccccc21 | 2.25
2 | CC(C)C[C@@H](C=O)NC(=O)[C@H](CC(C)C)NC(=O)[C@H](CC(C)C)NC(=O)OCc1ccccc1 (Cbz-Leu-Leu-Leu-aldehyde) | 4.05
